The experiment concerns Lactobacillus paracasei. Briefly: Effect of Lysozyme on Lactobacillus in fermentation medium (liquefied corn mash), bacterial plating and counting. As to conditions: 0-100-300-1000 mg/L Lysozyme in corn mash pH 5.05, 32° C., 0, 24 and 48 hours (FIG. 4). It is filed as cell-based. On the procedure: Milled corn was liquefied in an aqueous slurry (pH 5.6) using 50 NU/g DS Bacterial Alpha-Amylase A by heating until a temperature of 85° C. (approx 20 minutes) was reached. Thereafter the slurry is cooked for another 60 minutes. A sample of the liquefied corn mash (CM) was pH-adjusted to 5.05 with H2SO4. After pH adjustment, the mash was split up into approximately 59 of CM and added to 36 15 mL plastic centrifuge tubes. Various amounts of L. paracasei were then added to give an initial cell count of about 1-3×10^6/mL. Different dosages (0-100-300-1000 mg/L) of Lysozyme (Sigma) were also added to each tube. The tubes were then thoroughly vortexed and placed in a rack in 32° C. water bath. Tubes were pulled after 0, 24, and 48 hours for bacterial plating and counting. No additional Lysozyme was added to any of the tubes after time zero.

For “Lysozyme: Lysozyme from hen egg white, cat # L-7651, purchased from Sigma”, the “Antibacterial effect on Lactobacillus (growth inhibition)” value is given as “effective inhibiting growth of Lactobacillus paracasei”.
